Experimental data taken from PMC12040169 (PLOS Biology, 2025).

Experiment: in vitro
Details: human, hela cells, % viability

| Compound | viability at 28.5 h, 10 µM [%] |
| --- | --- |
| O=C(CSc1nc2sc3c(c2c(=O)n1Cc1ccco1)CCC3)NCc1ccco1 [CBK268499] | 101 |
| CC1CCN(S(=O)(=O)c2ccc(C(=O)N3CCCCC3C(=O)O)cc2)CC1 (centres unmarked) [CBK297094] | 89.8 |
| FC(F)Oc1ccc(NC(=S)NCCN2CCOCC2)cc1 [CBK028000] | 87.7 |
| Cc1ccc(CN(C(=O)/C=C/C(=O)O)C(C)(C)C)cc1 [CBK286799] | 91.5 |
| CC(C)Cn1c(=O)c2c(nc3n2CCS3)n(C)c1=O [CBK307109] | 98.1 |
| COc1ccc(-c2c[nH]c([C@@H]3COCCN3Cc3csnn3)n2)cc1 [CBK289297] | 97.5 |
| CC1CC1C(=O)N1CCC(c2nc3ccccc3cc2N)CC1 (centres unmarked) [CBK285090] | 98.8 |
| Cc1nc(S(=O)(=O)Cc2nccn2C)n(CC2CCCO2)c1C (centres unmarked) [CBK304012] | 87 |
| O=C(CSc1nc2cc(Cl)ccc2[nH]1)Nc1ccccc1F [CBK269916] | 84.8 |
| CN1CCCC(NC(=O)c2cc(-c3cccs3)no2)C1 (centres unmarked) [CBK282564] | 87.2 |
| O=C(CN1CCCCC1)Nc1cccc(-n2cnnn2)c1 [CBK027661] | 105 |
| OCn1nc(-c2ccc(Cl)cc2Cl)oc1=S [CBK288410] | 107 |
| Brc1ccc2c(c1)COC1(CN3CCC1CC3)O2 (centres unmarked) [CBK105268] | 107 |
| O=C(COc1ccc([N+](=O)[O-])cc1)Nc1ccc(CN2CCCCC2)cc1 [CBK266204] | 118 |
| CCCNc1nccnc1-c1ccc(C(=O)N2CCN(C)CC2)cc1 [CBK036892] | 110 |
| Cc1ccc2c(c1)OC1(CCN(C(=O)c3c(-c4ccccc4)nc4ccccn34)CC1)CC2=O [CBK167871] | 92.9 |
| Cc1ccsc1-c1nc2cnccn2c1NC1CCCC1 [CBK283524] | 93.9 |
| Cn1c2ccccc2c2nnc(SCCc3ccccc3)nc21 [CBK267986] | 109 |
| O=C(NCC1(CCO)CC1)c1c[nH]nc1-c1cc2ccccc2o1 [CBK306163] | 94.5 |
| CCNC(=S)NC(=Nc1nc(C)cc(C)n1)NCc1cccnc1 [CBK267212] | 97.2 |
| N#CCCN(C(=O)NCc1ccc(Cl)c(Cl)c1)C1CCCCC1 [CBK156349] | 85.5 |
| CCC(C)c1cc([N+](=O)[O-])cc([N+](=O)[O-])c1OC(=O)OC(C)C (centres unmarked) [CBK260882] | 99.2 |
| C=CCn1c2cc(C)sc2c2cnn(CCC(C)=O)c(=O)c21 [CBK282868] | 95.7 |

| Compound | viability at 28.5 h, 10 µM [%] |
| --- | --- |
| Nc1ncc(-c2cccc([N+](=O)[O-])c2)nc1-c1ccc(O)cc1 [CBK122507] | 101 |
| C[C@H](NC1=NC(=O)C2(CCN(Cc3ccccc3)CC2)O1)c1ccccc1 [CBK122798T] | 88.6 |
| Nc1nnc(Sc2nccnc2N2CCCC2)s1 [CBK093804] | 103 |
| Cc1ccc(-c2noc(CN3CCN(C(c4ccccc4)c4ccccc4)CC3)n2)cc1 [CBK266425] | 96.5 |
| Cc1cc2c(cc3c(=O)n(CC(=O)NC4CCCC4)nc(C)n32)s1 [CBK284072] | 96.9 |
| CC(C)C(=O)NCCn1nc(-c2ccccc2F)cc1CN(C)C [CBK281693] | 91.4 |
| COc1ccc(/C(C)=N\NC(=O)c2cccc(Br)c2)cc1 [CBK261612] | 100 |
| Cn1cc(CN2CCCN(C(=O)c3ccc4ccccc4n3)CC2)cn1 [CBK305369] | 102 |
| COc1cccc(CN2CCN(C(=O)c3cc(-c4ccncc4)nc4ccc(C)cc34)CC2)c1 [CBK267760] | 86 |
| CN1CCN(CCC(=O)N/N=C/c2cccc(Br)c2)CC1 [CBK261496] | 96.6 |
| Nc1n[nH]c(=O)c2ncn([C@H]3C[C@@H](O)[C@@H](CO)O3)c12 [CBK201233] | 91.4 |
| CC(=O)N1C[C@@H]2CCCCN(CCOc3ccccc3)[C@@H]2C1 [CBK285494] | 107 |
| O=S(=O)(N1CCCCCC1)n1ccnc1 [CBK269241] | 92.1 |
| CC1=NNC(=O)C1Cc1c(Cl)cccc1Cl (centres unmarked) [CBK067754] | 109 |
| COc1ccc(-c2cncc(N3CCCC3CO)n2)cc1 (centres unmarked) [CBK037223] | 112 |
| O=c1[nH]c(=O)n([C@H]2C[C@@H](O)[C@@H](CO)O2)cc1CO [CBK201332] | 94 |
| COc1ccccc1Cc1cccc(C2CCCN2C(=O)Cc2c[nH]c3ccccc23)n1 (centres unmarked) [CBK286139] | 95.2 |
| O=C(O)c1c(-c2ccccc2)oc2ccc(NS(=O)(=O)c3ccc(F)cc3)cc12 [CBK299817] | 89.9 |
| CNC(=O)c1ccc(-c2cccc(Cl)c2Cl)nc1N1CCOCC1 [CBK106215] | 109 |
| c1ccc(CN2CCN(Cc3ccccc3)C2c2ccco2)cc1 [CBK260888] | 99.6 |
| O=CN1CCc2c([nH]c3ccccc23)C12CCCN(CCOc1ccccc1)C2 (centres unmarked) [CBK039412] | 93.3 |
| CC(=O)Nc1ccc(CCNC(=O)NCc2nc(C3CC3)no2)cc1 [CBK306221] | 96.1 |
| O=C(Nc1ccc(F)cc1)OCC1COc2ccccc2C1 (centres unmarked) [CBK017146] | 85.5 |

| Compound | viability at 28.5 h, 10 µM [%] |
| --- | --- |
| Cc1cnn(C(C)C(=O)N2CCc3c(nc(N(C)C)nc3N(C)C)C2)c1 (centres unmarked) [CBK307556] | 109 |
| Cc1csc(C(Cc2ccsc2)NC(=O)CCc2ccno2)n1 (centres unmarked) [CBK285099] | 100 |
| O=S(=O)(c1ccc(F)cc1)N1CCCC1c1cccc(Cc2ccccc2)n1 (centres unmarked) [CBK286231] | 97.3 |
| Cc1c(C)c2c(O)n(-c3ccccc3)nc2[nH]c1=O [CBK287891] | 89.3 |
| O=C(NC(/C=C/c1ccccc1)c1cc([N+](=O)[O-])c2cccnc2c1O)C1CCCCC1 (centres unmarked) [CBK265333] | 93 |
| Cc1ccc(C)c(NC(=O)C(Cc2ccccc2)N2C(=O)c3cc(Cl)c(Cl)cc3C2=O)c1 (centres unmarked) [CBK264232] | 109 |
| O=C(NCCCN1CCOCC1)c1cnc(-c2ccccc2)c(-c2ccncc2)c1 [CBK036664] | 106 |
| O=C1CC(c2ccc(F)cc2)CC(=O)C1=CNCCN1CCN(C(=S)Nc2ccccc2)CC1 (centres unmarked) [CBK264784] | 94.1 |
| CN(C)Cc1ccc(C(=O)N2CCCC2(C)C(=O)N(C)C)cc1 (centres unmarked) [CBK281955] | 90 |
| Cc1cc2ncc3c(n2n1)CC1CCC3N1C(=O)CCn1cccc1 (centres unmarked) [CBK283157] | 109 |
| CCc1nnc(SC(C)C(=O)N2CCCc3ccccc32)[nH]1 (centres unmarked) [CBK306009] | 84.1 |
| COc1ccc2c(c1)C1(Nc3ccccc3C(=O)N1c1ccccc1)C(=O)N2 (centres unmarked) [CBK103747] | 94.1 |
| CC(CN(C)C)C(=O)c1ccsc1 (centres unmarked) [CBK025906] | 93 |
| CCN(Cc1cccnc1)C(CC1CCCCC1)c1ccccc1 (centres unmarked) [CBK061673] | 98 |
| O=[N+]([O-])c1cccc(CNc2nccnc2-c2ccccc2F)c1 [CBK037416] | 102 |
| CCNc1ncc(C(=O)N2CCC(Nc3cccnc3)CC2)s1 [CBK304047] | 99.6 |
| COc1ccc([N+](=O)[O-])cc1N1CCN(C(=O)OC(C)(C)C)CC1 [CBK003504] | 92.3 |
| O=C(NCc1ccc(Cl)cc1)c1cnc2ccc(C#CCO)cc2c1O [CBK017979] | 92.4 |
| CN(c1ncc(-c2cc3ccccc3o2)cc1C(=O)Nc1ccc2c(c1)OCO2)S(C)(=O)=O [CBK106464] | 101 |
| Cc1ccc(C2=CCN(CC(=O)N(C)C3CCCCC3)CC2)o1 [CBK283633] | 91.6 |
| Cc1cc(Cl)c(S(=O)(=O)N2CCCC2)cc1OCC(=O)NC1CCCCC1 [CBK266781] | 93.9 |
| CN1CC2(CCCN(Cc3noc(-c4ccccc4)n3)C2)OC1=O (centres unmarked) [CBK306952] | 93 |
| O=C(Nc1cc(-c2nc3ncccc3o2)ccc1Cl)c1ccc(-c2ccccc2[N+](=O)[O-])o1 [CBK264097] | 89 |

| Compound | viability at 28.5 h, 10 µM [%] |
| --- | --- |
| Cc1cc(N2CCOCC2)c2c(N)c(Br)cc(C)c2n1 [CBK066880] | 73 |
| c1ccc(N2CCN(c3cncc(-c4ccc5ccccc5c4)n3)CC2)nc1 [CBK066104] | 100 |
| Cc1nccn1-c1ccc(NC(=O)c2ccn(C(F)F)n2)cc1 [CBK281410] | 110 |
| C=CCOc1cccn2c(N(C=O)Cc3ccccc3)c(CC)nc12 [CBK147827] | 92.2 |
| COc1cccc(/C=N/c2cc(S(=O)(=O)c3ccc(O)c(/N=C/c4cccc(OC)c4O)c3)ccc2O)c1O [CBK261225] | 92.4 |
| CCN(CC)CC(c1ccccc1)C(O)c1ccc(OC)cc1 (centres unmarked) [CBK262074C] | 88.8 |
| Cc1c(CNCCN2CCCC2=O)c2ccccc2n1C [CBK281519] | 84.6 |
| COc1ccc(/C=N/NS(=O)(=O)c2ccc(C)cc2)cc1CSc1ccccn1 [CBK263036] | 96 |
| COc1ccc(-c2nc(NC(=O)C3CC(=O)N(C)C3c3cccnc3)cnc2-c2cccc(C)c2)cc1 (centres unmarked) [CBK036692] | 101 |
| O=C(O)[C@@H]1CCN(Cc2ccccc2)C[C@H]1c1ccccc1 [CBK286840] | 102 |
| Fc1ccc(N2CCN(c3ncnc4[nH]cnc34)CC2)cc1 [CBK287387] | 89.8 |
| Cc1cc(NC(=O)C(C)N2CCN(S(=O)(=O)c3ccc(C4CCCCC4)cc3)CC2)on1 (centres unmarked) [CBK295639] | 101 |
| O=C(CN1CCOCC1)Nc1ccc(S(=O)(=O)Nc2cc(Cl)cc(Cl)c2)cc1 [CBK001239] | 89.1 |
| O=C(O)c1ccc(NC(=O)c2cn(-c3ccccc3)nc2-c2cc3ccccc3o2)cc1 [CBK266587C] | 106 |
| O=C(CCn1cccn1)N1CCC(c2cc3ncccc3[nH]2)CC1 [CBK284457] | 83.6 |
| O=C(Cn1c(=O)n(Cc2cccs2)c2ncccc21)NC1CC1 [CBK283898] | 90.6 |
| O=C(c1ccco1)N1CCN(c2cc(-c3cc(C(F)(F)F)cc(C(F)(F)F)c3)ncn2)CC1 [CBK037734] | 102 |
| CC1(C)NC(=O)N(CC(O)Cn2c3ccccc3c3ccccc32)C1=O (centres unmarked) [CBK304318] | 86.8 |
| O=C(NCCC1=CCCCC1)Nc1ccc(SC(F)(F)F)cc1 [CBK043725] | 85.7 |
| O=C(COc1ccc(Cl)cc1Br)N1CCCCCC1 [CBK058661] | 82.8 |
